# Results taken from US12558342B2, “2-[2-({12,12-dimethyl-4-oxo-6-phenyl-3,11-dioxatricyclo[8.4.0.0,2,7]tetradeca-1,5,7,9-tetraen-8-yl}oxy)acetamido]benzamide and derivatives as inhibitor of clock:bmal1 interaction for the treatment of circadian rhythm diseases and disorders” (KOC UNIVERSITESI, priority 2019, dated 2026).
# Substitutions are numbered along the chain they refer to.
# Legend:
# U2OS cells = assay: MTT-based cell cytotoxicity test; set-up: species or system human
# Method: The toxicity of the compounds was assessed by MTT-based assay using immortalized human osteosarcoma (U2OS) cells treated with different compounds at different concentrations. Cell viability was measured with MTT-based cell cytotoxicity test. U2OS cells were seeded on 96-well plate with 4×10^3 cell/well density. Two days later, the cells were treated with an appropriate amount of different small molecules. Control cells were treated with 0.5% vehicle (DMSO). After 48 hours, the media was replaced with a 20% solution of 5 mg/ml MTT in DMEM. After 4 hours of incubation, the media was discarded and a 1:1 solution of ethanol and DMSO was used to dissolve the formazan crystals. Cell viability was measured as stated in Sigma-Aldrich product information.
# Compounds with a relative cell viability of less than 80% at 1.25 μM were eliminated. The final concentration of a non-toxic compounds for in vitro experiments was set to the maximum concentration at which it had at least 80% relative cell viability. Ultimately, 72 compounds were statistically identified as non-toxic and used for the next characterization step.
# CLOCK = target: T1, CLOCK (Homo sapiens, UniProt O15516); assay: Pull-down assay with biotinylated CLK8, U2OS lysate with endogenous CLOCK; type: binding; set-up: expressed in transfected cells; host or cells: HEK293T
# T1 sequence (O15516 1-846): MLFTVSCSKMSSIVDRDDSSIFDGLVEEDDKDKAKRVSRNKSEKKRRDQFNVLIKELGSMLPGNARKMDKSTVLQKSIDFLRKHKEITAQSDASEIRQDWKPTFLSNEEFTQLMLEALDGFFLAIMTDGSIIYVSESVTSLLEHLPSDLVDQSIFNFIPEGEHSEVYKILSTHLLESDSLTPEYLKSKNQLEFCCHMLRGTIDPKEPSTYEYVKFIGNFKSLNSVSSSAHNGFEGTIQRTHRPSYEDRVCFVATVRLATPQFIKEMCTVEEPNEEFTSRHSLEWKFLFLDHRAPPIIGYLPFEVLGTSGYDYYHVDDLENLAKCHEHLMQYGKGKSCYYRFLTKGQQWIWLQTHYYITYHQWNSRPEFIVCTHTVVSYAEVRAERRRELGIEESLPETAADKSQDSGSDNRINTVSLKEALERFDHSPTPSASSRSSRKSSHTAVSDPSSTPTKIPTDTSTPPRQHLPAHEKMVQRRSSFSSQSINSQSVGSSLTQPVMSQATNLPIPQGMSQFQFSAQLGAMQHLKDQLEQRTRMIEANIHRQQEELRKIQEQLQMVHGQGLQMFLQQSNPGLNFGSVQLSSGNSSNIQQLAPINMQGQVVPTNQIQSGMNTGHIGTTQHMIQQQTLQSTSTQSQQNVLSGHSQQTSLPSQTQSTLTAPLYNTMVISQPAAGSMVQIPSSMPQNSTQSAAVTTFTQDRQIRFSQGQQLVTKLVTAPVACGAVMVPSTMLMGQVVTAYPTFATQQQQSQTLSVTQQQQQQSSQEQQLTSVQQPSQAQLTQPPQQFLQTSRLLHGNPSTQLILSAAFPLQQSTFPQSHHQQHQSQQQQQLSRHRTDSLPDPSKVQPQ
# CLOCK-F80A-K220A = target: T2, CLOCK-F80A-K220A (Homo sapiens, UniProt O15516, F80A/K220A); assay: Pull-down assay with biotinylated CLK8, HEK 293T cells overexpressing CLOCK-F80A-K220A and BMAL1; type: binding
# T2 construct: expressed in transfected cells; host or cells: HEK 293T
# T2 sequence (O15516 1-846 F80A/K220A): T1 sequence (O15516 1-846) with F80A, K220A
# Method: HEK293T cells were transiently transfected with tag-free hsClock and mBmal1. After 48 hours of transfection, cells were harvested and whole cell lysate was prepared with ice-cold lysis buffer (50 mM Tris-HCl pH 7.4, 2 mM EDTA, 1 mM MgCl2, 0.2% NP-40, 1 mM sodium orthovanadate, 1 mM sodium fluoride and protease inhibitor cocktail) followed by centrifugation at 7000×g at 4° C. for 10 minutes. Lysate was diluted with ice-cold 2× binding buffer (100 mM Tris-HCl pH 7.4, 300 mM NaCl, 0.2% NP-40, 2 mM sodium orthovanadate, 2 mM sodium fluoride, and protease inhibitor cocktail) 27. The lysate was divided into three fractions to be treated with either DMSO, or 20 μM of bitoinylated-CLK8 (bait) with or without 200 μM CLK8 (competitor). The lysate-compound samples were incubated and mixed continuously at 4° C. for 1 hour. After equilibrating NeutroAvidin Agarose resin (Thermo Scientific) with lysis buffer, the lysate-compound mixture and NeutroAvidin Agarose resin were incubated and mixed continuously at 4° C. overnight. The beads were washed four times with 1× binding buffer. To elute the bound proteins Laemmli buffer was added and samples were heated at 95° C. for 7 minutes. The pull-down precipitates were subjected to SDS-PAGE and transferred to a PVDF membrane (Millipore). […]
smiles,measurement,setting,value
"CC1(C)CCc2c(cc(OCC(=O)Nc3ccccc3C(N)=O)c3c(-c4ccccc4)cc(=O)oc23)O1 [CLK8, 2-[2-({12,12-dimethyl-4-oxo-6-phenyl-3,11-dioxatricyclo [8.4.0.0,2,7]tetradeca-1,5,7,9-tetraen-8-yl}oxy)acetamido] benzamide]",toxicity to the U2OS cell line,U2OS cells,not toxic
same,affinity for CLOCK,"CLOCK; endogenous CLOCK, input vs precipitated sample",high affinity for CLOCK
same,other core clock components as target,"CLOCK; except BMAL1, including NPAS2",none of the other core clock components were detected as a target
same,precipitated mutant CLOCK in the presence of the competitor,CLOCK-F80A-K220A,did not disappear
